{
  "source": "patent US10131652B2",
  "about": "“Pyrimidinyloxy benzene derivatives as herbicides” (E. I. DU PONT DE NEMOURS AND COMPANY, priority 2014, dated 2018)",
  "format_in_all_cases": "in vivo",
  "key": {"[1]": {"system": "wild oat (Avena fatua)", "assay": "Test E pre-/postemergence plant response", "conditions": "scale 0 to 100, read-out: Plant response rating, Oat, Wild; for pest or weed control at 16 g/ha: 16 g ai/ha; for pest or weed control at 31 g/ha: 31 g ai/ha; for pest or weed control at 62 g/ha: 62 g ai/ha; for pest or weed control at 125 g/ha: 125 g ai/ha", "outline": "(§1)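 Pre-emergence: seeds sown in silt loam soil and sprayed with test chemicals in a non-phytotoxic solvent/surfactant mix. Post-emergence: plants at 2–18 cm (1- to 4-leaf stage) in peat/vermiculite medium treated with the same formulation. Visual rating versus controls after 7–21 days, 0 (no effect) to 100 (complete control).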"}, "[2]": {"system": "kochia (Kochia scoparia)", "assay": "Test E pre-/postemergence plant response", "conditions": "Bassia scoparia, scale 0 to 100, read-out: Plant response rating, Kochia; for pest or weed control at 16 g/ha: 16 g ai/ha; for pest or weed control at 31 g/ha: 31 g ai/ha; for pest or weed control at 62 g/ha: 62 g ai/ha; for pest or weed control at 125 g/ha: 125 g ai/ha", "outline": "as §1"}, "[3]": {"system": "wild buckwheat (Polygonum convolvulus)", "assay": "Test E pre-/postemergence plant response", "conditions": "Fallopia convolvulus, scale 0 to 100, read-out: Plant response rating, Buckwheat, Wild; for pest or weed control at 16 g/ha: 16 g ai/ha; for pest or weed control at 31 g/ha: 31 g ai/ha; for pest or weed control at 62 g/ha: 62 g ai/ha; for pest or weed control at 125 g/ha: 125 g ai/ha", "outline": "as §1"}, "[4]": {"system": "oilseed rape (Brassica napus)", "assay": "Test E pre-/postemergence plant response", "conditions": "scale 0 to 100, read-out: Plant response rating, Oilseed Rape; for plant injury at 16 g/ha: 16 g ai/ha; for plant injury at 31 g/ha: 31 g ai/ha; for plant injury at 62 g/ha: 62 g ai/ha; for plant injury at 125 g/ha: 125 g ai/ha", "outline": "as §1"}, "[5]": {"system": "rice flatsedge (Cyperus iria)", "assay": "Test G flooded paddy rice/weed plant response", "conditions": "Flood, 21 days, scale 0 to 100 (0 no effect, 100 complete control)", "excerpt": "(§2) Three plastic pots (ca. 16-cm diameter) per rate were partially filled with sterilized Tama silt loam soil comprising a 35:50:15 ratio of sand, silt and clay and 2.6% organic matter. Separate plantings for each of the three pots were as follows. Seeds from the U.S. of monochoria (Monochoria vaginalis), small-flower umbrella sedge (Cyperus difformis), hardstem bulrush (Scirpus juncoides), and redstem (purple redstem, Ammannia coccinea), were planted into one 16-cm pot for each rate. Seeds from the U.S. of rice flatsedge (Cyperus iria), bearded sprangletop (Leptochloa fascicularis), one stand of 9 or 10 water seeded rice seedlings (Indica rice, Oryza sativa), and two stands of 3 or 4 transplanted rice seedlings (Oryza sativa cv. ‘Japonica—M202’) were planted into one 16-cm pot for each rate. Seeds from the U.S. of bamyardgrass (Echinochloa crus-galli), and late watergrass (Echinochloa oryzicola) were planted into one 16-cm pot for each rate. Plantings were sequential so that crop and weed species were at the 2.0 to 2.5-leaf stage at time of treatment.\n(§3) Potted plants were grown in a greenhouse with day/night temperature settings of 30/27° C., and supplemental balanced lighting was provided to maintain a 16-hour photoperiod. Test pots were maintained in the greenhouse until test completion.\n(§4) At time of treatment, test pots were flooded to 3 cm above the soil surface, treated by application of test compounds directly to the paddy water, and then maintained at that water depth for the duration of the test. Effects of treatments on rice and weeds were visually evaluated by comparison to untreated controls after 21 days. Plant response ratings, summarized in Table G, are based on a scale of 0 to 100 where 0 is no effect and 100 is complete control. A dash (-) response means no test result."}, "[6]": {"system": "redstem (purple redstem, Ammannia coccinea)", "assay": "Test G flooded paddy rice/weed plant response", "conditions": "Flood, 21 days, scale 0 to 100 (0 no effect, 100 complete control)", "excerpt": "as §2, §3, §4"}, "[7]": {"system": "monochoria (Monochoria vaginalis)", "assay": "Test G flooded paddy rice/weed plant response", "conditions": "Flood, 21 days, scale 0 to 100 (0 no effect, 100 complete control)", "excerpt": "as §2, §3, §4"}, "[8]": {"system": "water seeded rice seedlings (Indica rice, Oryza sativa)", "assay": "Test G flooded paddy rice/weed plant response", "conditions": "Flood, 21 days, scale 0 to 100 (0 no effect, 100 complete control)", "excerpt": "as §2, §3, §4"}, "[9]": {"system": "barnyardgrass (Echinochloa crus-galli)", "assay": "Test G flooded paddy rice/weed plant response", "conditions": "Flood, 21 days, scale 0 to 100 (0 no effect, 100 complete control)", "excerpt": "as §2, §3, §4"}},
  "note": "Like-named read-outs stand apart in the source and are kept apart here.",
  "data": [
    {"smiles": "FC(F)c1cc(-c2ccccc2Oc2ncc(Cl)cn2)no1", "note": "[Compound 35, 5-chloro-2-[2-[5-(difluoromethyl)-3-isoxazolyl]phenoxy]pyrimidine]", "values": [
      {"measurement": "pest or weed control at 16 g/ha", "setting": "[1]; post-emergence, Postemergence", "result": 10, "unit": "%"},
      {"measurement": "pest or weed control at 31 g/ha", "setting": "[1]; post-emergence, Postemergence", "result": 15, "unit": "%"},
      {"measurement": "pest or weed control at 62 g/ha", "setting": "[1]; post-emergence, Postemergence", "result": 35, "unit": "%"},
      {"measurement": "pest or weed control at 125 g/ha", "setting": "[1]; post-emergence, Postemergence", "result": 60, "unit": "%"},
      {"measurement": "pest or weed control at 16 g/ha", "setting": "[1]; pre-emergence, Preemergence", "result": 0, "unit": "%"},
      {"measurement": "pest or weed control at 31 g/ha", "setting": "[1]; pre-emergence, Preemergence", "result": 0, "unit": "%"},
      {"measurement": "pest or weed control at 62 g/ha", "setting": "[1]; pre-emergence, Preemergence", "result": 45, "unit": "%"},
      {"measurement": "pest or weed control at 125 g/ha", "setting": "[1]; pre-emergence, Preemergence", "result": 35, "unit": "%"},
      {"measurement": "pest or weed control at 16 g/ha", "setting": "[2]; post-emergence, Postemergence", "result": 75, "unit": "%"},
      {"measurement": "pest or weed control at 31 g/ha", "setting": "[2]; post-emergence, Postemergence", "result": 75, "unit": "%"},
      {"measurement": "pest or weed control at 62 g/ha", "setting": "[2]; post-emergence, Postemergence", "result": 80, "unit": "%"},
      {"measurement": "pest or weed control at 125 g/ha", "setting": "[2]; post-emergence, Postemergence", "result": 90, "unit": "%"},
      {"measurement": "pest or weed control at 16 g/ha", "setting": "[2]; pre-emergence, Preemergence", "result": 25, "unit": "%"},
      {"measurement": "pest or weed control at 31 g/ha", "setting": "[2]; pre-emergence, Preemergence", "result": 65, "unit": "%"},
      {"measurement": "pest or weed control at 62 g/ha", "setting": "[2]; pre-emergence, Preemergence", "result": 100, "unit": "%"},
      {"measurement": "pest or weed control at 125 g/ha", "setting": "[2]; pre-emergence, Preemergence", "result": 100, "unit": "%"},
      {"measurement": "pest or weed control at 16 g/ha", "setting": "[3]; post-emergence, Postemergence", "result": 75, "unit": "%"},
      {"measurement": "pest or weed control at 31 g/ha", "setting": "[3]; post-emergence, Postemergence", "result": 85, "unit": "%"},
      {"measurement": "pest or weed control at 62 g/ha", "setting": "[3]; post-emergence, Postemergence", "result": 90, "unit": "%"},
      {"measurement": "pest or weed control at 125 g/ha", "setting": "[3]; post-emergence, Postemergence", "result": 95, "unit": "%"},
      {"measurement": "pest or weed control at 16 g/ha", "setting": "[3]; pre-emergence, Preemergence", "result": 60, "unit": "%"},
      {"measurement": "pest or weed control at 31 g/ha", "setting": "[3]; pre-emergence, Preemergence", "result": 75, "unit": "%"},
      {"measurement": "pest or weed control at 62 g/ha", "setting": "[3]; pre-emergence, Preemergence", "result": 90, "unit": "%"},
      {"measurement": "pest or weed control at 125 g/ha", "setting": "[3]; pre-emergence, Preemergence", "result": 100, "unit": "%"},
      {"measurement": "plant injury at 16 g/ha", "setting": "[4]; post-emergence, Postemergence", "result": 70, "unit": "%"},
      {"measurement": "plant injury at 31 g/ha", "setting": "[4]; post-emergence, Postemergence", "result": 80, "unit": "%"},
      {"measurement": "plant injury at 62 g/ha", "setting": "[4]; post-emergence, Postemergence", "result": 95, "unit": "%"},
      {"measurement": "plant injury at 125 g/ha", "setting": "[4]; post-emergence, Postemergence", "result": 100, "unit": "%"},
      {"measurement": "plant injury at 16 g/ha", "setting": "[4]; pre-emergence, Preemergence", "result": 60, "unit": "%"},
      {"measurement": "plant injury at 31 g/ha", "setting": "[4]; pre-emergence, Preemergence", "result": 95, "unit": "%"},
      {"measurement": "plant injury at 62 g/ha", "setting": "[4]; pre-emergence, Preemergence", "result": 100, "unit": "%"},
      {"measurement": "plant injury at 125 g/ha", "setting": "[4]; pre-emergence, Preemergence", "result": 100, "unit": "%"},
      {"measurement": "Plant response rating, Flatsedge, Rice", "setting": "[5]; 32 g ai/ha", "result": 100},
      {"measurement": "Plant response rating, Flatsedge, Rice", "setting": "[5]; 64 g ai/ha", "result": 100},
      {"measurement": "Plant response rating, Flatsedge, Rice", "setting": "[5]; 125 g ai/ha", "result": 100},
      {"measurement": "Plant response rating, Flatsedge, Rice", "setting": "[5]; 250 g ai/ha", "result": 100},
      {"measurement": "Plant response rating, Redstem", "setting": "[6]; 32 g ai/ha", "result": 0},
      {"measurement": "Plant response rating, Redstem", "setting": "[6]; 64 g ai/ha", "result": 85},
      {"measurement": "Plant response rating, Redstem", "setting": "[6]; 125 g ai/ha", "result": 90},
      {"measurement": "Plant response rating, Redstem", "setting": "[6]; 250 g ai/ha", "result": 100},
      {"measurement": "Plant response rating, Monochoria", "setting": "[7]; 32 g ai/ha", "result": 98},
      {"measurement": "Plant response rating, Monochoria", "setting": "[7]; 64 g ai/ha", "result": 100},
      {"measurement": "Plant response rating, Monochoria", "setting": "[7]; 125 g ai/ha", "result": 100},
      {"measurement": "Plant response rating, Monochoria", "setting": "[7]; 250 g ai/ha", "result": 100},
      {"measurement": "Plant response rating, Rice, Water Seeded", "setting": "[8]; 32 g ai/ha", "result": 60},
      {"measurement": "Plant response rating, Rice, Water Seeded", "setting": "[8]; 64 g ai/ha", "result": 70},
      {"measurement": "Plant response rating, Rice, Water Seeded", "setting": "[8]; 125 g ai/ha", "result": 100},
      {"measurement": "Plant response rating, Rice, Water Seeded", "setting": "[8]; 250 g ai/ha", "result": 100},
      {"measurement": "Plant response rating, Barnyardgrass", "setting": "[9]; 32 g ai/ha", "result": 30},
      {"measurement": "Plant response rating, Barnyardgrass", "setting": "[9]; 64 g ai/ha", "result": 45},
      {"measurement": "Plant response rating, Barnyardgrass", "setting": "[9]; 125 g ai/ha", "result": 100},
      {"measurement": "Plant response rating, Barnyardgrass", "setting": "[9]; 250 g ai/ha", "result": 100}
    ]}
  ]
}
